Results taken from publication PMC9497135, “Structure-Based Study to Overcome Cross-Reactivity of Novel Androgen Receptor Inhibitors” (Cells, 2022).
Positions count from the first letter of the chain named.

Legend:
[1] = biological target: T1, AR (LNCaP cells, which carry the T878A AR mutation) (Homo sapiens, UniProt P10275, T878A); test: eGFP cellular AR transcription assay in LNCaP cells (LN-ARR2PB-eGFP); type: cell-based; conditions: eGFP-expressing LNCaP cells, no R1881
T1 construct: LNCaP cells, which carry the T878A AR mutation; endogenous in cells; host or cells: LNCaP (LN-ARR2PB-eGFP)
T1 sequence (P10275 1-920 T878A): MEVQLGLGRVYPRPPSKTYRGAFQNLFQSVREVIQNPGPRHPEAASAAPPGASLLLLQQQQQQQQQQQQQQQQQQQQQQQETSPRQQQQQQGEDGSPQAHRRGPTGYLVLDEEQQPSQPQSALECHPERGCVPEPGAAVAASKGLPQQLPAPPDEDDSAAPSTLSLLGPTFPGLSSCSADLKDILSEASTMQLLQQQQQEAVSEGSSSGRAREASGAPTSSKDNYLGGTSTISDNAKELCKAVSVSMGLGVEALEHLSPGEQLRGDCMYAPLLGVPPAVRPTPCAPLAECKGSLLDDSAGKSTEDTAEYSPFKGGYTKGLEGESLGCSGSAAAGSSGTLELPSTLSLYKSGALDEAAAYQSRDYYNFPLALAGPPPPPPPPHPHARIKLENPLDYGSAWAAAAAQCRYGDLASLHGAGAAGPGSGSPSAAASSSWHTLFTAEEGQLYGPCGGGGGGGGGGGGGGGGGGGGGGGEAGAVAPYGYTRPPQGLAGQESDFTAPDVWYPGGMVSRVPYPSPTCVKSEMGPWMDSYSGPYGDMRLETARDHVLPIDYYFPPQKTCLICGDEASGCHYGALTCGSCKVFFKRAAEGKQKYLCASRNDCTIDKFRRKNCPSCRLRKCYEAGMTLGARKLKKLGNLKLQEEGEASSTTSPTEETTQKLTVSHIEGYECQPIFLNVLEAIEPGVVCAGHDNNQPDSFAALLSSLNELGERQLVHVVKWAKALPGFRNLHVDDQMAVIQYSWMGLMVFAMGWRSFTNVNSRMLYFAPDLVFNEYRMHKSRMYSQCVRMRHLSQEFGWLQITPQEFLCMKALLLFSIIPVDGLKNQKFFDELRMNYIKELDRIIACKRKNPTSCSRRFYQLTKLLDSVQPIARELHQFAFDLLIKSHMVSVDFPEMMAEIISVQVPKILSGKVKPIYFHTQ

[2] = biological target: T1, AR (LNCaP cells, which carry the T878A AR mutation); test: as above; type: cell-based; conditions: LNCaP, with R1881, high concentrations
Experimental: AR transcriptional activity was assayed as previously described. Briefly, LNCaP human prostate cancer cells (LN-ARR2PB-eGFP), stably transfected with eGFP reporter driven by an androgen responsive probasin-derived promoter (ARR2PB), were grown in phenol red free RPMI 1640 media supplemented with 5% charcoal stripped serum (CSS). After 5 days, the cells were plated into a 96-well plate (35,000 cells/well) with 0.1 nM of the synthetic androgen R1881 and increasing concentrations (0−100 μM) of test compounds. Fluorescence (excitation 485 nm, emission 535 nm) was measured after 3 days of incubation with the compounds.

wild-type AR = biological target: T2, wild-type AR (Homo sapiens, UniProt P10275); test: Luciferase reporter assay, PC3 cells transfected with wild-type AR; type: cell-based; conditions: in the presence of R1881
T2 construct: Full-length human wild type AR was cloned into pcDNA3.1 expression plasmid; expressed in transfected cells; host or cells: PC3
T2 sequence (P10275 1-920): T1 sequence (P10275 1-920 T878A) with A878T
Experimental: Full-length human wild type AR was cloned into pcDNA3.1 expression plasmid (Invitrogen, Waltham, MA, USA) with a CMV promoter. The T878A mutant (T878A-AR) was generated with the Quikchange Mutagenesis Kit (Stratagene, San Diego, CA, USA) using hARWT plasmid as a template. Androgen-starved PC3 cells were seeded in 96-well plates (3000 cells/well) in RPMI 1640 + 5% CSS for 24 h followed by transfection with 50 ng of hARWT or hART878A along with 50 ng of ARR3tk-luciferase reporter construct (100 ng total plasmid DNA) and 0.3 µL/well TransIT20/20 transfection reagent (TT2020, Mirus, Madison, Wisconsin, WI, USA) for 48 h. Cells were treated with increasing amounts of test compound (0.1% final DMSO concentration) and 0.1 nM R1881 for 24 h. Cell lysis was carried out with 60 µL 1X passive lysis buffer/well (Promega, Madison, Wisconsin, WI, USA). The luminescence from 20 µL of cell lysate and 50 µL of Luciferase assay reagent (Promega, Madison, Wisconsin, WI, USA) was recorded on a TECAN M200pro plate reader.

[3] = system: endogenous wild type AR in R1-AD1 cells; test: AR transcriptional activity in R1-AD1 cells; type: cell-based, human; conditions: 0.1 nM R1881

COc1c(F)cccc1-c1csc(N2CCOCC2)n1 [VPC14368, 4-(4-(3-fluoro-2-methoxyphenyl)thiazol-2-yl)morpholine]
AR transcriptional activity in the absence of R1881 [1]: enhanced the AR transcriptional activity
Partial agonistic effect in eGFP assay [2]: partial agonistic effect
AR transcription, wild-type AR (wild-type AR): inhibited by VPC14368 in a dose-dependent manner
Agonistic effect in R1-AD1 cells [3]: not observed
